Test results taken from article PMC4868099 (ACS Medicinal Chemistry Letters, 2016).
“Also recorded” adds a separate entry of the source.

Experiments:
[1] = molecular target: T1, human kidney-type glutaminase (hKGA124–669) (Homo sapiens, UniProt O94925); type: biochemical
T1 sequence (O94925 124-669): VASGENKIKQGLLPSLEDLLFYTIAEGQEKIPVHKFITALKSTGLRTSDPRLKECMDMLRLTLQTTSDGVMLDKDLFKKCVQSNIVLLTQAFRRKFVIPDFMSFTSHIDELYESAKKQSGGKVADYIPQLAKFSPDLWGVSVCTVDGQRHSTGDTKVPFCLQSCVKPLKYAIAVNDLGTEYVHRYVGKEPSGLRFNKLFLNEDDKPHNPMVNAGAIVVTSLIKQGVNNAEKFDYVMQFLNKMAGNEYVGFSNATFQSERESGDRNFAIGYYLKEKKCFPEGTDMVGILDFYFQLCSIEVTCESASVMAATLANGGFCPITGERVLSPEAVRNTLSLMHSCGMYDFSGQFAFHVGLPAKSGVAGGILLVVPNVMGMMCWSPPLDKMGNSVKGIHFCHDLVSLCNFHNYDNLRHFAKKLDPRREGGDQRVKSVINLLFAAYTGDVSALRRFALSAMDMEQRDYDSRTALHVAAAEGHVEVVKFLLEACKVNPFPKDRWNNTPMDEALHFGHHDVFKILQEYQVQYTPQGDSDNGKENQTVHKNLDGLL

[2] = tested on: GLS (both KGA and GAC isoenzymes) over GLS2; details: cited from earlier work
[3] = tested on: MDA-MB-231; assay: Cell growth / viability, CellTiter-Glo, MDA-MB-231; type: cell-based, human; details: 72 h of incubation
[4] = tested on: HCC1806; assay: Cell growth / viability, CellTiter-Glo, HCC1806; type: cell-based, human; details: 72 h of incubation

SMILES: O=C(Cc1ccc(O)cc1)Nc1nnc(CCCCc2nnc(NC(=O)Cc3ccc(O)cc3)s2)s1 [2q]
- higher GLS inhibitory potency compared with 2p [1]: 10 fold

SMILES: [N-]=[N+]=CC(=O)CC[C@H](N)C(=O)O [DON, 6-Diazo-5-oxo-L-norleucine]
- selectivity GLS versus GLS2 [2]: inhibits both GLS and GLS2

SMILES: O=C(Cc1ccccc1)Nc1nnc(CCCCc2nnc(NC(=O)Cc3ccc(O)cc3)s2)s1 [compound 2m, 4-hydroxy-N-[5-[4-[5-[(2-phenylacetyl)amino]-1,3,4-thiadiazol-2-yl]butyl]-1,3,4-thiadiazol-2-yl]-benzeneacetamide]
- antiproliferative effect compared with BPTES and CB-839 in MDA-MB-231 [3]: least effective
- growth inhibition of MDA-MB-231 ([3]; 1000 nM, P < 0.05 compared to controls): statistically significant growth inhibition
- increase in GLS inhibitory potency from the corresponding acetoxy derivative 2j [1]: ~8 fold
- time dependency of GLS inhibitory potency (effect of preincubation time) ([1]; Figure 2): no time-dependent increase in GLS inhibitory potency; also recorded: did not exhibit time-dependency
- antiproliferative effect compared with BPTES and CB-839 in HCC1806 [4]: least effective
